Measured values from the supplement of paper PMC10307832.

Key:
Assay in all cases: relative viability (nuclei count vs DMSO), 5 days (fraction); higher = more cells survive
Cediranib + Pemetrexed = compound: COc1cc2c(Oc3ccc4[nH]c(C)cc4c3F)ncnc2cc1OCCCN1CCCC1 [Cediranib] + Nc1nc2[nH]cc(CCc3ccc(C(=O)N[C@@H](CCC(=O)O)C(=O)O)cc3)c2c(=O)[nH]1 [Pemetrexed] (partner 0.2 µM)
Method in brief: (§1)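 Nuclei were stained with Hoechst during a one-step fixation (final 0.05% Triton X-100, 1% formaldehyde, 1 ug/ml Hoechst) carried out 5 days after dosing, then counted on 4× images. The cells, lung cancer lines in 1536-well plates, had been dosed by pin tool the day after seeding with one drug alone or a fixed anchor-drug dose plus five library-drug doses (not always all listed) in √10 steps. Relative viability is the nuclei count in treated wells divided by that in vehicle wells, and each value is the median of duplicate plates.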

Halofuginone + OSI-027 = compound: O=C(C[C@H]1NCCC[C@@H]1O)Cn1cnc2cc(Br)c(Cl)cc2c1=O (racemic) [Halofuginone] + COc1cccc2cc(-c3nc([C@H]4CC[C@H](C(=O)O)CC4)n4ncnc(N)c34)[nH]c12 [OSI-027] (partner 0.5 µM)
Method in brief: as §1

Cediranib + Pictilisib = compound: COc1cc2c(Oc3ccc4[nH]c(C)cc4c3F)ncnc2cc1OCCCN1CCCC1 [Cediranib] + CS(=O)(=O)N1CCN(Cc2cc3nc(-c4cccc5[nH]ncc45)nc(N4CCOCC4)c3s2)CC1 [Pictilisib] (partner 1 µM)
Method in brief: as §1

[1] = compound: O=C(C[C@H]1NCCC[C@@H]1O)Cn1cnc2cc(Br)c(Cl)cc2c1=O (racemic) [Halofuginone] + C[C@]1(O)C[C@@H](c2nc(-c3ccc4ccc(-c5ccccc5)nc4c3)c3c(N)nccn32)C1 [Linsitinib] (partner 1 µM)
Method in brief: as §1

Cell Line | relative viability (Cediranib + Pemetrexed; first compound 0.04 µM) | relative viability (Cediranib + Pemetrexed; first compound 0.1265 µM) | relative viability (Cediranib + Pemetrexed; first compound 0.4 µM) | relative viability (Cediranib + Pemetrexed; first compound 1.265 µM) | relative viability (Cediranib + Pemetrexed; first compound 4 µM) | relative viability (Halofuginone + OSI-027; first compound 0.001 µM) | relative viability (Halofuginone + OSI-027; first compound 0.003162 µM) | relative viability (Halofuginone + OSI-027; first compound 0.01 µM) | relative viability (Halofuginone + OSI-027; first compound 0.03162 µM) | relative viability (Halofuginone + OSI-027; first compound 0.1 µM) | relative viability (Cediranib + Pictilisib; first compound 0.04 µM) | relative viability (Cediranib + Pictilisib; first compound 0.1265 µM) | relative viability (Cediranib + Pictilisib; first compound 0.4 µM) | relative viability (Cediranib + Pictilisib; first compound 1.265 µM) | relative viability (Cediranib + Pictilisib; first compound 4 µM) | relative viability ([1]; first compound 0.001 µM) | relative viability ([1]; first compound 0.003162 µM) | relative viability ([1]; first compound 0.01 µM) | relative viability ([1]; first compound 0.03162 µM) | relative viability ([1]; first compound 0.1 µM)
201T | 0.344 | 0.314 | 0.327 | 0.359 | 0.355 | 0.755 | 0.775 | 0.713 | 0.474 | 0.256 | 0.725 | 0.699 | 0.639 | 0.632 | 0.7 | 1.07 | 1.08 | 1.03 | 0.967 | 0.724
A549 | – | – | – | – | – | – | – | – | – | – | 0.538 | 0.628 | 0.485 | 0.477 | 0.532 | 0.653 | 0.556 | 0.612 | 0.559 | 0.286
A-427 | 0.921 | – | 0.955 | 0.962 | 1.08 | 0.472 | 0.483 | 0.385 | 0.445 | 0.419 | 0.716 | – | 0.608 | 0.573 | 0.707 | 1.18 | 1.13 | 1.02 | 1.09 | 1.08
ABC-1 | – | – | – | – | – | 0.413 | 0.454 | 0.504 | 0.601 | 0.417 | 0.786 | 0.566 | 0.69 | – | 0.737 | 0.921 | 0.947 | 0.763 | 0.625 | 0.961
BEN | 0.921 | 0.549 | 0.693 | 0.501 | 0.786 | 0.341 | 0.287 | 0.299 | 0.288 | 0.247 | 0.584 | 0.497 | 0.509 | 0.425 | 0.504 | 0.965 | 0.912 | 1.03 | 0.841 | 0.352
CAL-12T | 1.03 | 1.29 | 1.14 | 1.13 | 1.03 | 0.872 | 0.771 | 0.707 | 0.807 | 0.414 | 0.431 | – | 0.438 | 0.319 | 0.501 | 0.842 | 0.838 | 0.659 | 0.866 | 0.649
COR-L23 | 0.203 | 0.209 | 0.2 | 0.214 | 0.202 | 0.769 | 0.86 | 0.72 | 0.677 | 0.302 | 0.75 | 0.821 | 0.775 | 0.501 | 0.783 | 0.973 | 0.91 | 0.972 | 0.876 | 0.102
COR-L 105 | 1.11 | 1.08 | 1.06 | 1.08 | 1.15 | 0.667 | 0.637 | 0.603 | 0.656 | 0.466 | – | 0.434 | 0.332 | 0.376 | 0.403 | 1.13 | 0.932 | 0.764 | 0.748 | 0.753
Calu-6 | – | – | – | – | – | – | – | – | – | – | 0.97 | 0.985 | 0.931 | 0.824 | 1.13 | 1 | – | 0.932 | 0.712 | 0.35
